Data from patent US12285012B2, “Compositions comprising pyridine carboxylate herbicides with acetolactate synthase (ALS) inhibitor herbicides” (Corteva Agriscience LLC, priority 2018, dated 2025).
Values joined by “and” are separate entries in the source; they are usually repeats but may differ in a detail not shown here. Equal entries are not always repeated.

Key:
Assay in all cases: Greenhouse postemergence herbicidal effect
Type in all cases: in vivo
[1] = test system: Canadian thistle (CIRAR, Cirsium arvense)
Procedure, shortened: (§1)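 Visual injury ratings (0 = no injury, 100 = complete kill) were taken 20–22 d after treatment relative to solvent-blank controls. Applications were made to plants at the second or third true leaf stage, using emulsifiable concentrates with cloquintocet-mexyl safener.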

[2] = test system: pineapple weed (MATMT, Matricaria discoidea); conditions: MATMT; Compound B 10 g/ha
Procedure, shortened: as §1

[3] = test system: pigweed (AMARE, Amaranthus retroflexus); conditions: for Obs % visual injury: AMARE
Procedure, shortened: as §1

[4] = test system: winter rape (BRSNW, Brassica napus); conditions: BRSNW; Compound B 10 g/ha
Procedure, shortened: as §1

[5] = test system: wild pansy (VIOTR, Viola tricolor); conditions: for Obs % visual injury: VIOTR
Procedure, shortened: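 Injury was rated visually after 20-22 d on a 0 (none) to 100% (complete kill) scale relative to solvent-sprayed controls, with sub-irrigation to avoid wash-off. Rates were given in g ae/ha or g ai/ha depending on component.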

[6] = test system: chickweed (STEME, Stellaria media); conditions: for Obs % visual injury: STEME
Procedure, shortened: as §1

[7] = test system: wild chamomile (MATCH, Matricaria chamomilla); conditions: MATCH; Compound B 10 g/ha
Procedure, shortened: as §1

[8] = test system: wild buckwheat (POLCO, Polygonum convolvulus); conditions: for Obs % visual injury: POLCO
Procedure, shortened: as §1

[9] = test system: Russian thistle (SASKR, Salsola kali); conditions: SASKR; Compound B 10 g/ha
Procedure, shortened: as §1

[10] = test system: kochia (KCHSC, Kochia scoparia); conditions: for Obs % visual injury: KCHSC
Procedure, shortened: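 Plants at the second or third true leaf stage received overhead spray at 187 L/ha, with the pyridine carboxylate (plus cloquintocet-mexyl safener) alone or with ALS herbicides in 1.25% v/v crop oil. Rates are in g ae/ha or g ai/ha. Visual injury versus solvent-blank controls was scored 0–100% after 20-22 d in the greenhouse.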

[11] = test system: common lambsquarters (CHEAL, Chenopodium album L.); conditions: for Obs % visual injury: CHEAL

## C#CCOC(=O)c1nc(-c2ccc3cc[nH]c3c2F)c(F)c(N)c1Cl [Compound B, propargyl 4-amino-3-chloro-5-fluoro-6-(7-fluoro-1H-indol-6-yl)pyridine-2-carboxylate]
[1]; CIRAR, Compound B 5 g/ha
  Obs % visual injury: 50%
[1]; Cirsium arvense, post-emergence, 10 g/ha, read-out: % visual injury, Obs
  pest or weed control at 10 g/ha: 55%
[2]
  Obs % visual injury: 20%
[3]; 10 g/ha
  % visual injury, Obs: 73%
[3]; Compound B 5 g/ha
  Obs % visual injury: 93%
[3]; Compound B 10 g/ha
  Obs % visual injury: 84% and 94%
[4]
  Obs % visual injury: 93%
[5]; 10 g/ha
  % visual injury, Obs: 8%
[5]; Compound B 5 g/ha
  Obs % visual injury: 20%
[5]; Compound B 10 g/ha
  Obs % visual injury: 18%
[6]; 10 g/ha
  % visual injury, Obs: 90%
[6]; Compound B 5 g/ha
  Obs % visual injury: 85%
[6]; Compound B 10 g/ha
  Obs % visual injury: 95%
[7]
  Obs % visual injury: 20% and 18%
[8]; 10 g/ha
  % visual injury, Obs: 90%
[8]; Compound B 5 g/ha
  Obs % visual injury: 88%
[8]; Compound B 10 g/ha
  Obs % visual injury: 97% and 87%
[9]
  Obs % visual injury: 63%
[10]; Bassia scoparia, post-emergence, 10 g/ha, read-out: % visual injury, Obs
  pest or weed control at 10 g/ha: 73%
[10]; Compound B 5 g/ha
  Obs % visual injury: 60%
[10]; Compound B 10 g/ha
  Obs % visual injury: 65%
[10]; Compound B (without cloquintocet-mexyl safener) 10 g/ha
  Obs % visual injury: 96%
[11]; 10 g/ha
  % visual injury, Obs: 93%
[11]; Compound B 5 g/ha
  Obs % visual injury: 96%
[11]; Compound B 10 g/ha
  Obs % visual injury: 94% and 96%
